Experimental findings from BindingDB's records for doi:10.1016/j.bmcl.2010.10.033 (Glaxosmithkline, 2010) are described below.

Experiment [1] in a line: Antagonist activity at CCR5 in HOS cells assessed as inhibition of HIV-1 Ba-L infection.
Experiment [2] in a line: Antagonist activity at CCR5 in human peripheral blood lymphocytes cells assessed as inhibition of HIV-1 Ba-L infection.

As usually defined, the IC50 is the point on the concentration scale where inhibition reaches its midpoint. As to `C=CCN(C(=O)Cc1ccc(C(F)(F)F)cc1)C1CCN(CCC2(c3cccc(F)c3)CCN(C(=O)c3cc(S(=O)(=O)NC(C)(C)C)c(F)cc3Cl)CC2)CC1` [N-allyl-N-(1-(2-(1-(5-(N-tert-butylsulfamoyl)-2-chloro-4-fluorobenzoyl)-4-(3-fluorophenyl)piperidin-4-yl)ethyl)piperidin-4-yl)-2-(4-(trifluoromethyl)phenyl)acetamide], the IC50 in experiment [1] stood at 3.3 nM; in experiment [2], 53 nM.
With `CCCCN(C(=O)NCc1ccc(C#N)cc1)C1CCN(CCC2(c3cccc(F)c3)CCN(C(=O)c3cc(S(=O)(=O)NC(C)(C)C)c(F)cc3Cl)CC2)CC1` [N-tert-butyl-5-(4-(2-(4-(1-butyl-3-(4-cyanobenzyl)ureido)piperidin-1-yl)ethyl)-4-(3-fluorophenyl)piperidine-1-carbonyl)-4-chloro-2-fluorobenzenesulfonamide], the results for the IC50 in experiment [1] and in experiment [2] were 2.6 nM and 11 nM, respectively.
On the same counts, the results for `C=CCN(C(=O)NCc1ccc(C(=O)OC)cc1)C1CCN(CCC2(c3cccc(F)c3)CCN(C(=O)c3cc(S(=O)(=O)NC(C)(C)C)c(F)cc3Cl)CC2)CC1` [methyl 4-((3-allyl-3-(1-(2-(1-(5-(N-tert-butylsulfamoyl)-2-chloro-4-fluorobenzoyl)-4-(3-fluorophenyl)piperidin-4-yl)ethyl)piperidin-4-yl)ureido)methyl)benzoate] are 26 nM and 146 nM.
